Our source for the GI50 and TGI values is PubChem BioAssay (NCI).

Among the test systems are SK-MEL-28 melanoma; SNB-19 CNS; DU-145 prostate; IGROV1 ovarian; MOLT-4 leukemia; SK-OV-3 ovarian; PC-3 prostate.
What all share (assay): NCI anticancer screen, dose series, 48 h

Structures are written as SMILES.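 Five compound concentrations were applied to cells in 96-well plates for 48 hours; endpoints were derived by simple linear interpolation of the resulting dose-response curve. GI50: concentration for 50% inhibition of growth. TGI: total growth inhibition.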

For `O=C1/C=C/[C@@H](O)[C@@H]2C[C@@H](O)C[C@H]2/C=C/CCC[C@H](CCc2ccc(C(F)(F)F)cc2)O1`, the GI50 in the test on SK-MEL-28 melanoma was 0.0405 µM; in the test with SNB-19 CNS, 0.383 µM; with DU-145 prostate it was 0.479 µM; in the test on IGROV1 ovarian, 0.309 µM; with MOLT-4 leukemia, 0.32 µM; in the test on SK-OV-3 ovarian, 0.279 µM. In the test with PC-3 prostate, the GI50 is 0.401 µM. Further, the TGI in the test on SK-MEL-28 melanoma is 0.361 µM; in the test on SNB-19 CNS, over 100 µM; with DU-145 prostate it was over 100 µM; with IGROV1 ovarian, 7.01 µM; in the test on MOLT-4 leukemia it was 0.832 µM; in the test with SK-OV-3 ovarian, 30.2 µM. Further, the TGI in the test with PC-3 prostate was over 83.3 µM.
In the case of `CO/[N+]([O-])=C\C(=O)N/C=C/C(=O)O`, the TGI in the test on SK-MEL-28 melanoma, with SNB-19 CNS, in the test on DU-145 prostate, in the test with IGROV1 ovarian, in the test on MOLT-4 leukemia and in the test with SK-OV-3 ovarian was over 100 µM throughout. The compound further yielded a TGI in the test with PC-3 prostate of over 100 µM.
With `O=C(Nc1cccc(NC(=O)C(=O)C2CCC3=C(Sc4ccccc4N3)C2=O)n1)C(=O)C1CCC2=C(Sc3ccccc3N2)C1=O` (stereo not given), the TGI in the test on SK-MEL-28 melanoma, in the test on SNB-19 CNS, with DU-145 prostate, in the test with IGROV1 ovarian, with MOLT-4 leukemia and in the test on SK-OV-3 ovarian was over 100 µM each time. Besides, the TGI with PC-3 prostate is over 100 µM.
Turning to `Cc1ncc(C(=O)Nc2ccc(CN3CCN(C)CC3)c(C(F)(F)F)c2)cc1C#Cc1cnc(N)c2cnccc12`, the GI50 was 0.0181 µM with SK-MEL-28 melanoma; 0.684 µM in the test on SNB-19 CNS; 0.0636 µM in the test on DU-145 prostate; 0.0294 µM in the test with IGROV1 ovarian; 0.0412 µM in the test on MOLT-4 leukemia; 0.162 µM with SK-OV-3 ovarian. The GI50 with PC-3 prostate was 0.225 µM. The TGI with SK-MEL-28 melanoma stood at 0.376 µM; in the test with SNB-19 CNS it was 17.6 µM; with DU-145 prostate it was 6.91 µM; with IGROV1 ovarian it was 0.282 µM; with MOLT-4 leukemia, 4.98 µM; in the test on SK-OV-3 ovarian it was 0.763 µM. For the same compound, in the test with PC-3 prostate, the TGI is 16.3 µM.
For the compound `O=C1/C(=C\c2ccc(F)cc2)CN(C(=O)c2ccc([N+](=O)[O-])cc2)C/C1=C\c1ccc(F)cc1`, the GI50 in the test on SK-MEL-28 melanoma is 3.72 µM; in the test with SNB-19 CNS it was 3.58 µM; in the test on DU-145 prostate it was 4.31 µM; with IGROV1 ovarian, 2.67 µM; with MOLT-4 leukemia, 2.7 µM; in the test with SK-OV-3 ovarian, 3.7 µM. The GI50 with PC-3 prostate was 2.14 µM. Moreover, the TGI is 15.1 µM in the test with SK-MEL-28 melanoma; 49.1 µM in the test with SNB-19 CNS; over 51.8 µM with DU-145 prostate; 11 µM with IGROV1 ovarian; over 85.2 µM in the test on MOLT-4 leukemia; 26.8 µM in the test with SK-OV-3 ovarian. The compound further came in with a TGI in the test on PC-3 prostate of 14.5 µM.
Regarding `O=C(CCCCCCCn1cc(-c2cccnc2)nn1)Nc1ccccc1-c1ccccc1`, the GI50 in the test with SK-MEL-28 melanoma was 13.2 µM; in the test with SNB-19 CNS it was 1.74 µM; with DU-145 prostate, 0.569 µM; with IGROV1 ovarian it was 0.272 µM; with MOLT-4 leukemia, 2.31 µM; in the test with SK-OV-3 ovarian, 12.5 µM. Moreover, in the test with PC-3 prostate, the GI50 is 0.43 µM. The TGI in the test on SK-MEL-28 melanoma is over 95 µM; with SNB-19 CNS, over 100 µM; in the test on DU-145 prostate, over 100 µM; with IGROV1 ovarian, over 100 µM; in the test with MOLT-4 leukemia, 23.4 µM; in the test on SK-OV-3 ovarian, over 100 µM. In the test with PC-3 prostate, this compound displayed a TGI of 36.7 µM.
On to `Cc1ccc2c(c1)C(C)Cc1c(ncnc1-n1cnc3cc(C)ccc31)N2C` (stereo not given), for which the GI50 in the test on SK-MEL-28 melanoma is 0.0743 µM; in the test with SNB-19 CNS, 0.0522 µM; in the test with DU-145 prostate it was 0.0379 µM; in the test with IGROV1 ovarian it was 0.0633 µM; in the test with MOLT-4 leukemia, 0.0407 µM; with SK-OV-3 ovarian, 0.0295 µM. Moreover, in the test with PC-3 prostate, the GI50 is 0.0434 µM. In addition, the TGI with SK-MEL-28 melanoma came to 15.8 µM; with SNB-19 CNS it was 21.9 µM; in the test with DU-145 prostate, 11.1 µM; in the test on IGROV1 ovarian it was 15.7 µM; in the test on MOLT-4 leukemia it was 13.8 µM; in the test on SK-OV-3 ovarian, 1.09 µM. Also, in the test with PC-3 prostate, the TGI stood at 16.5 µM.
For the compound `CN(C)CCCNC(=O)c1ccc2oc3cc4ccccc4c(=O)n3c2c1`, the GI50 with SK-MEL-28 melanoma is 19.9 µM; with SNB-19 CNS, over 50 µM; in the test with DU-145 prostate, 36.7 µM; in the test with IGROV1 ovarian, 18.4 µM; in the test on MOLT-4 leukemia it was over 50 µM; with SK-OV-3 ovarian, over 50 µM. Also, in the test with PC-3 prostate, the GI50 was over 50 µM. In addition, the TGI with SK-MEL-28 melanoma, in the test with SNB-19 CNS, in the test with DU-145 prostate, with IGROV1 ovarian, in the test with MOLT-4 leukemia and with SK-OV-3 ovarian was over 50 µM throughout. This compound registered a TGI with PC-3 prostate of over 50 µM.
Regarding `COc1ccc(CCN2CCCN3C2=Nc2ccccc2S3(=O)=O)cc1`, the GI50 is 0.805 µM in the test with SK-MEL-28 melanoma; 0.882 µM with SNB-19 CNS; 0.496 µM in the test on DU-145 prostate; 1.51 µM with IGROV1 ovarian; 0.464 µM in the test on MOLT-4 leukemia; 0.552 µM in the test on SK-OV-3 ovarian. The GI50 with PC-3 prostate is 0.529 µM. Further, the TGI in the test with SK-MEL-28 melanoma, in the test with SNB-19 CNS, in the test with DU-145 prostate, with IGROV1 ovarian, with MOLT-4 leukemia and with SK-OV-3 ovarian was over 100 µM in each case. The compound further had a TGI in the test on PC-3 prostate of over 100 µM.
For `C[C@@H](N)C1CCC(C(=O)Nc2ccncc2)CC1` (stereo not given in full), the GI50 is over 100 µM with SK-MEL-28 melanoma; over 100 µM with SNB-19 CNS; over 100 µM in the test with DU-145 prostate; 81.6 µM in the test on IGROV1 ovarian; over 100 µM in the test with MOLT-4 leukemia; over 100 µM with SK-OV-3 ovarian. Besides, in the test with PC-3 prostate, the GI50 was over 100 µM. In addition, the TGI in the test with SK-MEL-28 melanoma, with SNB-19 CNS, with DU-145 prostate, in the test with IGROV1 ovarian, in the test with MOLT-4 leukemia and in the test with SK-OV-3 ovarian was over 100 µM throughout. In addition, the TGI in the test on PC-3 prostate was over 100 µM.
Consider `N=C(N)/N=C(\N)c1c(-c2cc(O)ccc2O)nc2sccn12`, for which the GI50 in the test on SK-MEL-28 melanoma was 21.4 µM; with SNB-19 CNS, over 100 µM; with DU-145 prostate, 16.8 µM; in the test with IGROV1 ovarian, 22.5 µM; with MOLT-4 leukemia it was 29.4 µM; in the test with SK-OV-3 ovarian it was over 100 µM. Also, in the test with PC-3 prostate, the GI50 was 26.7 µM. Further, the TGI was 46 µM in the test on SK-MEL-28 melanoma; over 100 µM with SNB-19 CNS; 30.5 µM with DU-145 prostate; 44.1 µM in the test with IGROV1 ovarian; over 100 µM in the test on MOLT-4 leukemia; over 100 µM with SK-OV-3 ovarian. Besides, in the test with PC-3 prostate, the TGI was over 100 µM.
